Tested on: Aβ42
Experiment: In vitro cell screening assay; quantification of Aβ (1-42) peptide by sandwich ELISA
Format: cell-based
Conditions: Human neuroglioma H4 cells stably expressing human wild type APP751; compounds 0.003-10 μM, incubated overnight (16-18 h); Aβ42 in supernatant by sandwich ELISA; normalized to DMSO and DAPT; read-out: Aβ42 H4 Prot Fre IC50
Protocol: Human neuroglioma H4 cells were transfected with a pcDNA3.1 plasmid expressing human wild type APP751 cDNA and a stable cell line was generated using G418 selection. Cells were plated at 15,000 cells/well in Costar 96-well plates and placed at 37° C. and 5% CO2. Six hours after plating, cells were washed three times with Pro293™ chemically defined medium, followed by addition of compounds (0.003-10 μM, final DMSO concentration of 0.33%). Plates were incubated overnight (16-18 h) and supernatant was removed for quantification of Aβ peptides by sandwich ELISA. Cytotoxicity was evaluated using Cell-Titer 96W AQueous One Solution Cell Proliferation Assay according to the manufacturer's protocol.
Aβ peptide levels were quantified by sandwich ELISA. 96-well plates were coated with C-terminal specific Aβ antibodies recognizing either Aβ37, Aβ38, Aβ40, Aβ42, Aβ43 or a N-terminal specific Aβ antibody to detect Aβ 1-x. Plates were then blocked overnight at 4° C. with 1% bovine serum albumin (BSA) in PBS-T. Plates were washed and 100 μl of cultured cell supernatant or synthetic Aβ peptide standards and a detection antibody (4G8-HRP) were applied to the blocked plate and incubated overnight at 4° C. The next day, wells were washed before the addition of detection substrate (TMB peroxidase). Plates were then read for absorbance at 450 nm on a Molecular Devices SpectraMax M5e Microplate Reader.
Compound-treated samples were normalized to samples treated with DMSO alone (no inhibition) and to samples treated with DAPT. IC50 values were calculated from values reported as percent of DMSO controls using nonlinear regression, based on a sigmoidal dose—response (variable slope) model. […] used for calculation.

| SMILES | IC50 [nM] |
| --- | --- |
| COc1nc(C2=NOC(C)C(c3cccc(Cl)c3)N2)ccc1-n1cnc(C)n1 (single isomer, unassigned; (+)) [Example 53B, (+)-5-(3-chlorophenyl)-3-(6-methoxy-5-(3-methyl-1H-1,2,4-triazol-1-yl)pyridin-2-yl)-6-methyl-5,6-dihydro-4H-1,2,4-oxadiazine] | 172 |
| COc1nc(C2=NOC(C)C(c3cn(C)c4ncc(Cl)cc34)N2)ccc1-n1cnc(C)c1 (single isomer, unassigned; (+)) [Example 54B, (+)-5-(5-chloro-1-methyl-1H-pyrrolo [2,3-b]pyridin-3-yl)-3-(6-methoxy-5-(4-methyl-1H-imidazol-1-yl)pyridin-2-yl)-6-methyl-5,6-dihydro-4H-1,2,4-oxadiazine] | 6.3 |
| COc1nc(C2=NOC(C)C(c3cn(C)c4ncc(Cl)cc34)N2)ccc1-n1cnc(C)c1 (single isomer, unassigned; (+)) [Example 54D, (+)-5-(5-chloro-1-methyl-1H-pyrrolo [2,3-b]pyridin-3-yl)-3-(6-methoxy-5-(4-methyl-1H-imidazol-1-yl)pyridin-2-yl)-6-methyl-5,6-dihydro-4H-1,2,4-oxadiazine] | 5.1 |
| COc1nc(C2=NOC(C)C(c3ccc(Cl)c(C(F)F)c3)N2)ccc1-n1cnc(C)c1 (single isomer, unassigned; (+)) [Example 55A, (+)-5-(4-chloro-3-(difluoromethyl)phenyl)-3-(6-methoxy-5-(4-methyl-1H-imidazol-1-yl)pyridin-2-yl)-6-methyl-5,6-dihydro-4H-1,2,4-oxadiazine] | 11.6 |
| COc1nc(C2=NOC(C)C(c3cn(C)c4ncc(C5CC5)cc34)N2)ccc1-n1cnc(C)c1 (single isomer, unassigned; (+)) [Example 56A, (+)-5-(5-cyclopropyl-1-methyl-1H-pyrrolo [2,3-b]pyridin-3-yl)-3-(6-methoxy-5-(4-methyl-1H-imidazol-1-yl)pyridin-2-yl)-6-methyl-5,6-dihydro-4H-1,2,4-oxadiazine] | 746 |
| COc1nc(C2=NOC(C)C(c3cn(C)c4ncc(C5CC5)cc34)N2)ccc1-n1cnc(C)c1 (single isomer, unassigned; (+)) [Example 56D, (+)-5-(5-cyclopropyl-1-methyl-1H-pyrrolo [2,3-b]pyridin-3-yl)-3-(6-methoxy-5-(4-methyl-1H-imidazol-1-yl)pyridin-2-yl)-6-methyl-5,6-dihydro-4H-1,2,4-oxadiazine] | 12.5 |
| COc1nc(C2=NOC(C3CC3)C(c3cc(F)cc(F)c3)N2)ccc1-n1cnc(C)c1 (single isomer, unassigned; (+)) [Example 59A, (+)-6-cyclopropyl-5-(3,5-difluorophenyl)-3-(6-methoxy-5-(4-methyl-1H-imidazol-1-yl)pyridin-2-yl)-5,6-dihydro-4H-1,2,4-oxadiazine] | 20.7 |
| COc1nc(C2=NOC(C3CC3)C(c3cn(C)c4ncc(F)c(F)c34)N2)ccc1-n1cnc(C)c1 (single isomer, unassigned; (+)) [Example 60A, (+)-6-cyclopropyl-5-(4,5-difluoro-1-methyl-1H-pyrrolo [2,3-b]pyridin-3-yl)-3-(6-methoxy-5-(4-methyl-1H-imidazol-1-yl)pyridin-2-yl)-5,6-dihydro-4H-1,2,4-oxadiazine] | 367 |
| COc1nc(C2=NOC(C3CC3)C(c3cc4ccccc4o3)N2)ccc1-n1cnc(C)c1 (single isomer, unassigned; (+)) [Example 61A, (+)-5-(benzofuran-2-yl)-6-cyclopropyl-3-(6-methoxy-5-(4-methyl-1H-imidazol-1-yl)pyridin-2-yl)-5,6-dihydro-4H-1,2,4-oxadiazine] | 16.8 |
| COc1nc(C2=NOC(C)C(c3cn(C)c4ncc(Cl)c(F)c34)N2)ccc1-n1cnc(C)c1 (single isomer, unassigned; (+)) [Example 62A, (+)-5-(5-chloro-4-fluoro-1-methyl-1H-pyrrolo [2,3-b]pyridin-3-yl)-3-(6-methoxy-5-(4-methyl-1H-imidazol-1-yl)pyridin-2-yl)-6-methyl-5,6-dihydro-4H-1,2,4-oxadiazine] | 31.7 |
